Assay results as given in US9623078B2, “Method for treating cardiac infarction using HMGB1 fragment” (GENOMIX CO., LTD, priority 2012, dated 2017).

Legend:
[1] = system: TNFα mRNA; test: TNFα mRNA level in myocardial tissue of myocardial infarction model (real-time PCR); type: in vivo, mouse; details: ratio to GAPDH mRNA level; N=4; negative control 11±3; P<0.05; day not stated in text (FIG. 1C: 7 and 56 days)
Method: (§1) Bone marrow cells were collected from the thigh bone/lower leg bone of three-week-old mice (C57BL6-CAG-GFP transgenic mice), and the bone marrow cell suspension was administered ([…]) to the tail vein of six-week-old mice (C57BL6) after irradiation (10GY) to produce bone marrow chimeric mice. Sixty days after bone marrow transplantation, left fourth interspace thoracotomy was performed under general anesthesia in the supine position, and the proximal left anterior descending coronary artery was ligated to produce an extensive myocardial infarction model (left anterior descending coronary artery/circumflex occlusion model). In making the HMGB1 protein low molecular, a fragment peptide (1-44) of the HMGB1 protein was developed in consideration of retaining the activity of recruiting bone marrow mesenchymal stem cells. […] Regarding the number of bone marrow-derived mesenchymal stem cells accumulated in the tissue, the number of cells positive for both GFP and PDGFRα present in all areas of randomly-selected 5 sections were determined and the mean value was calculated. […] Real-time PCR was performed with the Gene Amp(R) PCR System 9700 (Life Technologies Japan) using the above-mentioned cDNA as a template, and the levels of TNFα and IL-1β mRNA were determined as a ratio to the GAPDH mRNA level. […]

[2] = system: IL-1β mRNA; test: IL-1β mRNA level in myocardial tissue of myocardial infarction model (real-time PCR); type: in vivo, mouse; details: ratio to GAPDH mRNA level; N=4; negative control 6±1; P<0.05; day not stated in text (FIG. 1D: 7 and 56 days)
Method: as §1

[3] = system: acute stage myocardial infarction mouse model; test: Cardiac function by echocardiography in myocardial infarction model; type: in vivo
Method: Bone marrow cells were collected from the thigh bone/lower leg bone of three-week-old mice (C57BL6-CAG-GFP transgenic mice), and the bone marrow cell suspension was administered ([…]) to the tail vein of six-week-old mice (C57BL6) after irradiation (10GY) to produce bone marrow chimeric mice. Sixty days after bone marrow transplantation, left fourth interspace thoracotomy was performed under general anesthesia in the supine position, and the proximal left anterior descending coronary artery was ligated to produce an extensive myocardial infarction model (left anterior descending coronary artery/circumflex occlusion model). In making the HMGB1 protein low molecular, a fragment peptide (1-44) of the HMGB1 protein was developed in consideration of retaining the activity of recruiting bone marrow mesenchymal stem cells. At 6, 24, 48, 72, and 96 hours after infarction creation, the HMGB1 protein fragment peptide (1-44) (5 μg/300 μl), or 300 μl of PBS (negative control group) was administered five times to the tail vain. Mice were euthanized by administration of excess ketamine and xylazine, and their hearts were collected. After the tissues were embedded in OCT compound, cryosections of 5 μm thickness were prepared. […] Regarding the number of bone marrow-derived mesenchymal stem cells accumulated in the tissue, the number of cells positive for both GFP and PDGFRα present in all areas of randomly-selected 5 sections were determined and the mean value was calculated. […] Real-time PCR was performed with the Gene Amp(R) PCR System 9700 (Life Technologies Japan) using the above-mentioned cDNA as a template, and the levels of TNFα and IL-1β mRNA were determined as a ratio to the GAPDH mRNA level. Improvement in the cardiac function was evaluated by measuring the left ventricular end-diastolic diameter (LVDd: Dd), left ventricular end-systolic diameter (LVDs: Ds), and left ventricular ejection fraction (LVEF: EF) using the Vivid 7 Echocardiography System and 12-MHZ Transducer (General Electric).

[4] = system: PDGFRα-positive bone marrow mesenchymal stem cells; test: Recruitment of PDGFRα-positive bone marrow-derived mesenchymal stem cells to myocardium in myocardial infarction model (GFP/PDGFRα immunofluorescence); type: in vivo, mouse; details: N=4, P<0.05
Method: as §1

## HMGB1 protein fragment peptide (1-44): peptide consisting of amino acids at positions 1 to 44 of an HMGB1 protein (SEQ ID NO: 3), produced by peptide synthesis (MGKGDPKKPRGKMSSYAFFVQTCREEHKKKHPDASVNFSEFSKK; Synthesized peptide from an HMGB1 protein)
[1]
  TNFα mRNA level, non-infarction site: 4±2 GAPDH
[2]
  IL-1β mRNA level, non-infarction site: 2±1 GAPDH
[3]; Day 56 after infarction, N=8, negative control (N=16) 6.3±0.2, P<0.05
  left ventricular end-diastolic diameter (DD): 5.8±0.2 mm
[3]; Day 56 after infarction, N=8, negative control (N=16) 20±4, P<0.05
  left ventricular ejection fraction (EF): 26±4%
[3]; myocardial infarction model, five-day administration
  aggravation of left ventricular systolic function, left ventricular enlargement, and left ventricular remodeling: significantly suppressed
[4]; day 7 post infarction creation, 5 μg/300 μl tail vein x5 (6, 24, 48, 72, 96 h), negative control 32±9
  number of PDGFRα-positive bone marrow-derived mesenchymal cells, non-infarction site: 52±11 cells/mm^2
[4]; seven days after creating myocardial infarction
  recruitment of PDGFRα-positive bone marrow mesenchymal stem cells in all areas (infarction, border, non-infarction sites) vs. negative control: significantly recruited
